# Assay results taken from patent US8633167B2, “Method for the protection of trees” (Syngenta Crop Protection LLC, priority 2006, dated 2014).
# Assays:
# Cerambycid larvae = test: Bolt study (Example 1): cerambycid larval feeding in loblolly pine bolts cut after trunk injection; type: in vivo; conditions: for reduction of cerambycid feeding damage: May
# Protocol: (§1) Two 20-year-old, recently thinned loblolly pine plantations were selected on land owned by Temple-Inland Forest Products Corporation about 5 km south of Wells (Angelina County), Tex. Trees in one plantation were injected for use in a bolt study (Example 1). Trees in a 0.2 ha section of the second plantation were injected as part of a single-tree protection study (Example 2). A staging area also was set up in the second plantation where bolts from the first plantation were exposed to bark beetles and wood borers.
# Seventy-five loblolly pine trees, Pinus taeda L., 15-20 cm diameter at breast height (DBH), were selected in March 2004. Each treatment was injected into four cardinal points about 0.3 m above the ground on each of 15 trees in April (16th-23rd) using the new Arborjet Tree IV™ microinfusion system (Arborjet, Inc. Woburn, Mass.). The treatments included: • 1) Emamectin benzoate (Denim®, 1.92% ai, Syngenta Crop Science)—Denim® was mixed 1:1 with methanol and applied at 18.6 ml solution per inch of tree diameter at breast height (DBH) (=0.2 g active per inch DBH). • 2) Check (untreated)
# After 1 (May 24), 3 (July 19) and 5 (September) months post-injection, 5 trees of each treatment were felled and two 1.5 m long bolts were removed from the 3 m and 8 m heights of the bole. The bolts were transported to a nearby plantation that was recently thinned and contained fresh slash material. Each bolt was placed about 1 m apart on discarded, dry pine bolts to maximize surface area available for colonization as well as to discourage predation by ground and litter-inhabiting organisms. To facilitate timely bark beetle colonization, packets of bark beetle pheromones (racemic ipsdienol + lanerione combination, ipsenol or cis-verbenol; Phero Tech, Inc., Delta, BC, Canada) were attached separately to three 1 m stakes evenly spaced in the study area. Racemic ipsdienol and cis-verbenol were used with the second and third series of bolts deployed in July and September, respectively. The packets were removed after 2 weeks when signs of attacks (boring dust) were observed on most test bolts, signaling that naturally-produced pheromones were present.
# Each series of bolts were retrieved about 3 weeks after deployment, after observing many cerambycid egg niches on the bark surface of most bolts. There was concern that if cerambycid larvae were allowed to develop too long, their feeding activity would obscure or obliterate the Ips galleries. Thus, each series of bolts were retrieved and stored temporarily in a TFS seedling cooler (˜45° F.) to slow cerambycid development until the bolts could be evaluated.
# In the laboratory, two 10×50 cm strips (total=1000 cm^2) of bark were removed from each bolt. Several measurements were made relating to construction of nuptial chambers and egg galleries and development of brood: • 1) Number of unsuccessful attacks—penetration to phloem, but no egg galleries. • 2) Number of successful attacks—construction of nuptial chamber and at least one egg gallery extending from it. • 3) Number and lengths of egg galleries with brood galleries radiating from them. • 4) Number and lengths of egg galleries without brood galleries. • 5) Cerambycid activity, estimated by overlaying a 100 cm^2 grid over a portion of each bark strip and counting the number of squares overlapping area where cerambycid larvae had fed.
# Treatment efficacy was determined by comparing Ips beetle attacks and egg gallery length and cerambycid feeding on treated and untreated bolts. The data were transformed by log10(x+1) to satisfy criteria for normality and homoscedasticity (Zar 1984) and analyzed by GLM and the Fishers Protected LSD test using the Statview statistical program.
# cerambycids = test: Single-tree protection study (Example 2): cerambycid attacks and larval feeding on standing loblolly pine; type: in vivo; conditions: for Cerambycid Feeding Area: bolts cut after tree mortality or at the end of the trial
# Protocol: as §1
# Loblolly pine, 15-20 cm DBH, were selected in the second plantation in March 2004. Each treatment (the same as those used in Example 1) was injected into four cardinal points about 0.3 m above the ground on each of 6 trees in April (16th-23rd) using the Arborjet Tree IV™ system. After 5 weeks post-injection (May 28), frills were cut with a hatchet into the sapwood between the injection points near the base of the tree. A cellulose sponge was inserted into each cut and loaded with 10 ml of a 4:1 mix of sodium N-methyldithiocarbamate (MS) (Woodfume®; Osmose, Inc., Buffalo, N.Y.) plus dimethyl sulfoxide (DMSO) (Aldrich Chemical) (Roton 1987, Strom et al. 2004). This method reduces resin to near zero in 1-2 weeks. The intent was to stress the tree and make it susceptible to attack by bark beetles without killing it. […]
# Three weeks after pheromone deployment (June 28), each tree was evaluated by marking a 30 cm section of bole at a height of 3 m. All visible Ips attacks and cerambycid egg niches were counted within the marked area. The number of trees with fading crowns also was recorded. Thereafter, the trees were evaluated weekly for crown fading. When mortality did occur, the trees were felled and two bolts taken and evaluated for attack success and gallery length as described in Example 1. […] Treatment efficacy was determined by comparing tree survival, beetle attacks and egg gallery length on treated and untreated bolts. As before, data were transformed and analyzed by GLM and the Fisher's Protected LSD test using the Statview statistical program.
# [1] = system: pine wood nematode, Bursaphelenchus xylophilis; conditions: cited from earlier work
# [2] = system: coneworm, Dioryctria spp.; conditions: systemic activity in pine; cited from earlier work
substance,measurement,setting,value
4″-deoxy-4″-N-methylamino avermectin B1a/B1b [Emamectin],Percent Phloem Area Consumed by Larvae,"Cerambycid larvae; 1 Month Post Injection (May), bolt height 3 m",2.2 a %
same,Percent Phloem Area Consumed by Larvae,"Cerambycid larvae; 1 Month Post Injection (May), bolt height 8 m",0.0 a %
same,Percent Phloem Area Consumed by Larvae,"Cerambycid larvae; 3 Months Post Injection (July), bolt height 3 m",0.0 a %
same,Percent Phloem Area Consumed by Larvae,"Cerambycid larvae; 3 Months Post Injection (July), bolt height 8 m",0.0 a %
same,Percent Phloem Area Consumed by Larvae,"Cerambycid larvae; 5 Months Post Injection (September), bolt height 3 m",0.0 a %
same,Percent Phloem Area Consumed by Larvae,"Cerambycid larvae; 5 Months Post Injection (September), bolt height 8 m",0.0 a %
same,cerambycid larval feeding or development,"Cerambycid larvae; July and September series, bolts from 3 m",no larval feeding or development
same,reduction of cerambycid feeding damage,Cerambycid larvae; bolts from 3 m,93%
same,reduction of cerambycid feeding damage,Cerambycid larvae; bolts from 8 m,100%
same,Cerambycid Feeding Area,cerambycids; bolt height 3 m,0.0 a
same,Cerambycid Feeding Area,cerambycids; bolt height 8 m,0.0 a
same,"Mean # of Attacks/0.3 Bole Section at 3 m after 24 days, Cerambycid","cerambycids; standing loblolly pine, after 24 days",0.8 a
same,duration of protection,"[1]; pine, against pine wood nematode and coneworm",more than three years
same,efficacy against pine wood nematode,[1]; systemic activity in pine,highly effective
same,efficacy against coneworm,[2],highly effective
